According to ChEMBL document CHEMBL1649315, “Extended-spectrum cephalosporinase in Acinetobacter baumannii” (Antimicrob Agents Chemother, 2010):
In brackets after ≈: the same amount, converted by molar mass.

Assays:
Escherichia coli [1] = experiment: Antimicrobial activity against Escherichia coli TOP10 harboring pADC-33 plasmid with entire blaAmpC gene by Etest method; assay type: functional
Escherichia coli [2] = experiment: Antimicrobial activity against Escherichia coli TOP10 harboring pADC-11 plasmid carrying entire blaAmpC gene with alanine residue insertion at 215 position by Etest method; assay type: functional
Acinetobacter baumannii [3] = experiment: Antimicrobial activity against Acinetobacter baumannii AYE expressing VEB-1 gene by Etest method; assay type: functional
Escherichia coli [4] = experiment: Antimicrobial activity against Escherichia coli TOP10 harboring pADC-11 plasmid carrying entire blaAmpC gene with alanine residue deletion at 215 position and R210P substitution by Etest method in presence of Tazobactam; assay type: functional
Acinetobacter baumannii [5] = experiment: Ratio of Kcat to Km for Acinetobacter baumannii ADC-33 beta-lactamase to Kcat to Km for Acinetobacter baumannii ADC-11 beta-lactamase
Escherichia coli [6] = experiment: Antimicrobial activity against Escherichia coli TOP10 harboring pADC-11 plasmid by Etest method in presence of Tazobactam; assay type: functional
Escherichia coli [7] = experiment: Antimicrobial activity against Escherichia coli TOP10 harboring pTOPO plasmid by Etest method in presence of Tazobactam; assay type: functional
Escherichia coli [8] = experiment: Antimicrobial activity against Escherichia coli TOP10 harboring pADC-33 plasmid carrying entire blaAmpC gene with alanine residue deletion at 215 position and R210P substitution by Etest method; assay type: functional
Escherichia coli [9] = experiment: Antimicrobial activity against Escherichia coli TOP10 harboring pADC-11 plasmid carrying entire blaAmpC gene by Etest method in presence of Tazobactam; assay type: functional
Escherichia coli [10] = experiment: Antimicrobial activity against Escherichia coli TOP10 harboring pADC-33 plasmid carrying entire blaAmpC gene with alanine residue deletion at 215 position and R210P substitution by Etest method in presence of Tazobactam; assay type: functional
Acinetobacter baumannii [11] = experiment: Antimicrobial activity against Acinetobacter baumannii CIP70.10 by Etest method in presence of Tazobactam; assay type: functional
Acinetobacter baumannii [12] = experiment: Antimicrobial activity against Acinetobacter baumannii CIP70.10 by Etest method; assay type: functional
Escherichia coli [13] = experiment: Antimicrobial activity against Escherichia coli TOP10 harboring pADC-33 plasmid carrying entire blaAmpC gene by Etest method in presence of Tazobactam; assay type: functional
Escherichia coli [14] = experiment: Antimicrobial activity against Escherichia coli TOP10 harboring pADC-33 plasmid with entire blaAmpC gene with alanine residue deletion at 215 position by Etest method; assay type: functional
Escherichia coli [15] = experiment: Antimicrobial activity against Escherichia coli TOP10 harboring pADC-33 plasmid carrying entire blaAmpC gene with alanine residue deletion at 215 position by Etest method in presence of Tazobactam; assay type: functional
Escherichia coli [16] = experiment: Antimicrobial activity against Escherichia coli TOP10 harboring pADC-11 plasmid with entire blaAmpC gene by Etest method; assay type: functional
Escherichia coli [17] = experiment: Antimicrobial activity against Escherichia coli TOP10 harboring pADC-11 plasmid carrying entire blaAmpC gene with alanine residue insertion at 215 position by Etest method in presence of Tazobactam; assay type: functional
Escherichia coli [18] = experiment: Antimicrobial activity against Escherichia coli TOP10 harboring pADC-11 plasmid by Etest method; assay type: functional
Acinetobacter baumannii [19] = experiment: Antimicrobial activity against Acinetobacter baumannii KI by Etest method in presence of Tazobactam; assay type: functional
Escherichia coli [20] = experiment: Antimicrobial activity against Escherichia coli TOP10 harboring pADC-33 plasmid by Etest method; assay type: functional
Acinetobacter baumannii [21] = experiment: Antimicrobial activity against Acinetobacter baumannii AYE expressing VEB-1 gene by Etest method in presence of Tazobactam; assay type: functional
Escherichia coli [22] = experiment: Antimicrobial activity against Escherichia coli TOP10 harboring pADC-33 plasmid by Etest method in presence of Tazobactam; assay type: functional
Escherichia coli [23] = experiment: Antimicrobial activity against Escherichia coli TOP10 harboring pADC-50 plasmid by Etest method; assay type: functional
Acinetobacter baumannii [24] = experiment: Antimicrobial activity against Acinetobacter baumannii KI by Etest method; assay type: functional
Escherichia coli [25] = experiment: Antimicrobial activity against Escherichia coli TOP10 harboring pTOPO plasmid by Etest method; assay type: functional
Escherichia coli [26] = experiment: Antimicrobial activity against Escherichia coli TOP10 harboring pADC-11 plasmid carrying entire blaAmpC gene with alanine residue insertion at 215 position and R210P substitution by Etest method; assay type: functional
Escherichia coli [27] = experiment: Antimicrobial activity against Escherichia coli TOP10 harboring pADC-50 plasmid by Etest method in presence of Tazobactam; assay type: functional
[28] = system: CC1(C)S[C@@H]2[C@H](NC(=O)[C@H](N)c3ccccc3)C(=O)N2[C@H]1C(=O)O; experiment: (§1) Ratio of Kcat to Km for Acinetobacter baumannii ADC-11 beta-lactamase
[29] = system: CC(C)(O/N=C(\C(=O)N[C@@H]1C(=O)N2C(C(=O)[O-])=C(C[n+]3ccccc3)CS[C@H]12)c1csc(N)n1)C(=O)O; experiment: as §1
[30] = system: CCN1CCN(C(=O)N[C@@H](C(=O)N[C@@H]2C(=O)N3[C@@H]2SC(C)(C)[C@@H]3C(=O)O)c2ccccc2)C(=O)C1=O; experiment: as §1
[31] = system: CO/N=C(\C(=O)N[C@@H]1C(=O)N2C(C(=O)[O-])=C(C[n+]3cccc4c3CCC4)CS[C@H]12)c1csc(N)n1; experiment: as §1
[32] = system: CC1(C)S[C@@H]2[C@H](NC(=O)Cc3ccccc3)C(=O)N2[C@H]1C(=O)O; experiment: as §1
[33] = system: CC1(C)S[C@@H]2[C@H](NC(=O)[C@H](N)c3ccccc3)C(=O)N2[C@H]1C(=O)O; experiment: (§2) Activity of Acinetobacter baumannii ADC-11 beta-lactamase
[34] = system: CO/N=C(\C(=O)N[C@@H]1C(=O)N2C(C(=O)O)=C(COC(C)=O)CS[C@H]12)c1csc(N)n1; experiment: as §2
[35] = system: O=C(Cc1cccs1)N[C@@H]1C(=O)N2C(C(=O)[O-])=C(C[n+]3ccccc3)CS[C@H]12; experiment: as §2
[36] = system: CC(C)(O/N=C(\C(=O)N[C@@H]1C(=O)N2C(C(=O)[O-])=C(C[n+]3ccccc3)CS[C@H]12)c1csc(N)n1)C(=O)O; experiment: as §2
[37] = system: CCN1CCN(C(=O)N[C@@H](C(=O)N[C@@H]2C(=O)N3[C@@H]2SC(C)(C)[C@@H]3C(=O)O)c2ccccc2)C(=O)C1=O; experiment: as §2
[38] = system: CO/N=C(\C(=O)N[C@@H]1C(=O)N2C(C(=O)[O-])=C(C[n+]3cccc4c3CCC4)CS[C@H]12)c1csc(N)n1; experiment: as §2
[39] = system: CC1(C)S[C@@H]2[C@H](NC(=O)Cc3ccccc3)C(=O)N2[C@H]1C(=O)O; experiment: as §2
[40] = system: CC(=O)OCC1=C(C(=O)O)N2C(=O)[C@@H](NC(=O)Cc3cccs3)[C@H]2SC1; experiment: as §2
[41] = system: CO[C@@]1(NC(=O)Cc2cccs2)C(=O)N2C(C(=O)O)=C(COC(N)=O)CS[C@@H]21; experiment: Ratio of Kcat to Ki for Acinetobacter baumannii ADC-11 beta-lactamase

CCN1CCN(C(=O)N[C@@H](C(=O)N[C@@H]2C(=O)N3[C@@H]2SC(C)(C)[C@@H]3C(=O)O)c2ccccc2)C(=O)C1=O [PIPERACILLIN]
MIC (Escherichia coli [1]): > 256 µg/mL | MIC (Escherichia coli [2]): > 256 µg/mL | MIC (Acinetobacter baumannii [3]): > 256 µg/mL | MIC (Escherichia coli [4]): 256 µg/mL | kcat/Km (Acinetobacter baumannii [5]): 1.2e+06 M⁻¹ s⁻¹ | MIC (Escherichia coli [6]): 8 µg/mL | MIC (Escherichia coli [7]): 1 µg/mL | MIC (Escherichia coli [8]): > 256 µg/mL | MIC (Escherichia coli [9]): 128 µg/mL | MIC (Escherichia coli [10]): 128 µg/mL | MIC (Acinetobacter baumannii [11]): 4 µg/mL | MIC (Acinetobacter baumannii [12]): 16 µg/mL (≈ 30.9 µM) | MIC (Escherichia coli [13]): > 256 µg/mL | MIC (Escherichia coli [14]): > 256 µg/mL | MIC (Escherichia coli [15]): 256 µg/mL | MIC (Escherichia coli [16]): > 256 µg/mL | MIC (Escherichia coli [17]): 256 µg/mL | MIC (Escherichia coli [18]): 8 µg/mL (≈ 15.5 µM) | MIC (Acinetobacter baumannii [19]): 128 µg/mL | MIC (Escherichia coli [20]): 32 µg/mL (≈ 61.8 µM) | MIC (Acinetobacter baumannii [21]): 128 µg/mL | MIC (Escherichia coli [22]): 32 µg/mL | MIC (Escherichia coli [23]): 16 µg/mL (≈ 30.9 µM) | MIC (Acinetobacter baumannii [24]): > 256 µg/mL | MIC (Escherichia coli [25]): 1 µg/mL (≈ 1.93 µM) | MIC (Escherichia coli [26]): > 256 µg/mL | MIC (Escherichia coli [27]): 16 µg/mL

ADC-11 (Acinetobacter baumannii) (from UniProt D6NSM8)
kcat/Km [28]: 1e+06 M⁻¹ s⁻¹ | kcat/Km [29]: 1000 M⁻¹ s⁻¹ | kcat/Km [30]: 200000 M⁻¹ s⁻¹ | kcat/Km [31]: 4000 M⁻¹ s⁻¹ | kcat/Km [32]: 4e+06 M⁻¹ s⁻¹ | Km [33]: 7 µM | kcat [33]: 5 s⁻¹ | kcat [34]: 0.2 s⁻¹ | kcat [35]: 600 s⁻¹ | Km [36]: 10 µM | kcat [36]: 0.01 s⁻¹ | kcat [37]: 5 s⁻¹ | Km [38]: 1700 µM | kcat [38]: 8 s⁻¹ | Km [39]: 12 µM | kcat [39]: 45 s⁻¹ | Km [40]: 210 µM | kcat [40]: 550 s⁻¹ | kcat/Km [41]: 3e+06 M⁻¹ s⁻¹
